From patent US20080242663A1, “NOVEL PYRIMIDINE DERIVATIVES 698” (ASTRAZENECA AB, priority 2007, published 2008)

target: T1, recombinant EphB4 (Homo sapiens, UniProt P54760); assay: In vitro EphB4 enzyme assay (Alphascreen); type: biochemical
T1 construct: amino acids 563-987; Swiss-Prot Acc; No. P54760; purchased ProQinase GmbH 0178-0000-3
T1 sequence (P54760 563-987): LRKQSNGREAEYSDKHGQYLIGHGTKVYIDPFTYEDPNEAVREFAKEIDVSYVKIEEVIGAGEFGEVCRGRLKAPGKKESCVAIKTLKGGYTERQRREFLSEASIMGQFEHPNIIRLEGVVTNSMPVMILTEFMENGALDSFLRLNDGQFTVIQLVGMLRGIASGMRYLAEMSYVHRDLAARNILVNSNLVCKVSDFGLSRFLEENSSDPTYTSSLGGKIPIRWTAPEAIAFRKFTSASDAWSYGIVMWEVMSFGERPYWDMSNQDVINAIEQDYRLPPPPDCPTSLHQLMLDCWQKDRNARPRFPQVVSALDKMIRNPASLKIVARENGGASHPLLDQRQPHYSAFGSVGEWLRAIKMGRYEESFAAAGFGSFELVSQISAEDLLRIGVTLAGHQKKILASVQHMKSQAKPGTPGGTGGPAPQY
Procedure: This assay detects inhibitors of EphB4-mediated phosphorylation of a polypeptide substrate using Alphascreen™ luminescence detection technology. Briefly, recombinant EphB4 was incubated with a biotinylated-polypeptide substrate (biotin-poly-GAT) in presence of magnesium-ATP. The reaction was stopped by addition of EDTA, together with streptavidin-coated donor beads which bind the biotin-substrate containing any phosphorylated tyrosine residues. Anti-phosphotyrosine antibodies present on acceptor beads bind to phosphorylated substrate, thus bringing the donor & acceptor beads into close proximity. Subsequent excitation of the donor beads at 680 nm generated singlet oxygen species that interact with a chemiluminescer on the acceptor beads, leading to light emission at 520-620 nm. The signal intensity is directly proportional to the level of substrate phosphorylation and thus inhibition is measured by a decrease in signal.
Assay plates were then incubated at room temperature for 1 hr. […] The plates were sealed under natural lighting conditions, wrapped in aluminium foil and incubated in the dark for a further 20 hrs.
The resulting assay signal was determined on the Perkin Elmer EnVision plate reader. The minimum value was subtracted from all values, and the signal plotted against compound concentration to generate IC50 data.

IC50	SMILES
0.417 µM	CN(c1ccnc(Nc2cc(N3CCOCC3)cc(N3CCOCC3)c2)n1)c1cccc(Cl)c1C#N [Example 15.6, 2-chloro-6-[[2-[(3,5-dimorpholin-4-ylphenyl)amino]pyrimidin-4-yl]-methyl-amino]benzonitrile]
0.707 µM	CN(c1ccc(F)c(F)c1)c1ccnc(Nc2cc(N3CCOCC3)cc(N3CCOCC3)c2)n1 [Example 15.7, N′-(3,4-difluorophenyl)-N-(3,5-dimorpholin-4-ylphenyl)-N′-methyl-pyrimidine-2,4-diamine]
0.338 µM	CN(c1ccnc(Nc2cc(N3CCOCC3)cc(N3CCOCC3)c2)n1)c1cc(F)ccc1F [Example 15.8, N′-(2,5-difluorophenyl)-N-(3,5-dimorpholin-4-ylphenyl)-N′-methyl-pyrimidine-2,4-diamine]
0.602 µM	CN(c1ccnc(Nc2cc(N3CCOCC3)cc(N3CCOCC3)c2)n1)c1ccc(F)c(F)c1F [Example 15.9, N-(3,5-dimorpholin-4-ylphenyl)-N′-methyl-N′-(2,3,4-trifluorophenyl)pyrimidine-2,4-diamine]
7.73 µM	COc1cc(N(C)c2ccnc(Nc3cc(N4CCOCC4)cc(N4CCOCC4)c3)n2)ccc1C [Example 15.10, N-(3,5-dimorpholin-4-ylphenyl)-N′-(3-methoxy-4-methyl-phenyl)-N′-methyl-pyrimidine-2,4-diamine]
1.32 µM	COc1ccc(N(C)c2ccnc(Nc3cc(N4CCOCC4)cc(N4CCOCC4)c3)n2)c(C)c1 [Example 15.11, N-(3,5-dimorpholin-4-ylphenyl)-N′-(4-methoxy-2-methyl-phenyl)-N′-methyl-pyrimidine-2,4-diamine]
1.4 µM	COc1cc(C)ccc1N(C)c1ccnc(Nc2cc(N3CCOCC3)cc(N3CCOCC3)c2)n1 [Example 15.12, N-(3,5-dimorpholin-4-ylphenyl)-N′-(2-methoxy-4-methyl-phenyl)-N′-methyl-pyrimidine-2,4-diamine]
0.722 µM	COc1ccc(C)cc1N(C)c1ccnc(Nc2cc(N3CCOCC3)cc(N3CCOCC3)c2)n1 [Example 15.13, N-(3,5-dimorpholin-4-ylphenyl)-N′-(2-methoxy-5-methyl-phenyl)-N′-methyl-pyrimidine-2,4-diamine]
0.5 µM	COc1ccc(N(C)c2ccnc(Nc3cc(N4CCOCC4)cc(N4CCOCC4)c3)n2)cc1Cl [Example 15.14, N′-(3-chloro-4-methoxy-phenyl)-N-(3,5-dimorpholin-4-ylphenyl)-N′-methyl-pyrimidine-2,4-diamine]
0.696 µM	CN(c1ccnc(Nc2cc(N3CCOCC3)cc(N3CCOCC3)c2)n1)c1cccc(Cl)c1F [Example 15.15, N′-(3-chloro-2-fluoro-phenyl)-N-(3,5-dimorpholin-4-ylphenyl)-N′-methyl-pyrimidine-2,4-diamine]
0.634 µM	CN(c1ccc(Cl)c(F)c1)c1ccnc(Nc2cc(N3CCOCC3)cc(N3CCOCC3)c2)n1 [Example 15.16, N′-(4-chloro-3-fluoro-phenyl)-N-(3,5-dimorpholin-4-ylphenyl)-N′-methyl-pyrimidine-2,4-diamine]
1.15 µM	CN(c1ccnc(Nc2cc(N3CCOCC3)cc(N3CCOCC3)c2)n1)c1ccc(Cl)cc1F [Example 15.17, N′-(4-chloro-2-fluoro-phenyl)-N-(3,5-dimorpholin-4-ylphenyl)-N′-methyl-pyrimidine-2,4-diamine]
1.39 µM	Cc1ccc(Cl)c(N(C)c2ccnc(Nc3cc(N4CCOCC4)cc(N4CCOCC4)c3)n2)c1 [Example 15.18, N′-(2-chloro-5-methyl-phenyl)-N-(3,5-dimorpholin-4-ylphenyl)-N′-methyl-pyrimidine-2,4-diamine]
1.73 µM	Cc1ccc(N(C)c2ccnc(Nc3cc(N4CCOCC4)cc(N4CCOCC4)c3)n2)cc1Cl [Example 15.19, N′-(3-chloro-4-methyl-phenyl)-N-(3,5-dimorpholin-4-ylphenyl)-N′-methyl-pyrimidine-2,4-diamine]
1.75 µM	Cc1cccc(Cl)c1N(C)c1ccnc(Nc2cc(N3CCOCC3)cc(N3CCOCC3)c2)n1 [Example 15.20, N′-(2-chloro-6-methyl-phenyl)-N-(3,5-dimorpholin-4-ylphenyl)-N′-methyl-pyrimidine-2,4-diamine]
